Experimental data reported in patent US11401278B2, “Macrocyclic indole derivatives” (The Broad Institute, Inc., priority 2017, dated 2022).
Several values for one entry are separate records, joined by “and”; a condition that tells them apart may be missing. Equal entries are not always repeated. Structures can show the parent of a compound that is named as a salt. Where two headings read alike, the source gives them in different places.

Key:
[1] = test system: SUDHL5; experiment: Induction of caspase-3/7 activity (Assay 4), SUDHL5; type: cell-based; details: caspase-3/7 induction, median
In short: (§1)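 Caspase-3/7 activity measured by Caspase-Glo 3/7 luminescence in DLBCL cells after 3 h compound treatment at 37 °C. Medium-only background subtracted. EC50 fitted with C0 fixed at 1 and top set to the reference compound's plateau/max induction.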

[2] = test system: SUDHL5; experiment: Antiproliferation assay (Assay 7), SUDHL5; type: cell-based; details: CellTiter-Glo, median, read-out: Antiproli SUDHL5 [M] (median) IC50
In short: (§2)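 Anti-proliferative effect is determined from CellTiter-Glo signal after a 72-hour incubation at 37° C, with a time-zero reference plate measured in parallel.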

[3] = test system: SUDHL10; experiment: Induction of cytotoxicity (Assay 6), SUDHL10; details: read-out: Cytotox SUDHL10 [M] (median) IC50, CellTiter-Glo, 5 hours, SUDHL10
Method: Assay 6 Induction of Cytotoxicity Upon Treatment of Cells with Selected Compounds
Therefore, cytotoxicity assays were run in parallel in SUDHL5 and SUDHL10 cells.
The different cell lines were plated in culture medium (RPMI 1640 [GIBCO #22400-089] supplemented with 10% Fetal Bovine Serum) at a density of 3,300 cells in 30 μl/well in a sterile, solid black, flat bottom, polystyrene, TC-treated 384-well microplate (Corning #3571) using Multidrop Combi Reagent Dispenser. As a control, medium without cells was also added to the plate. Cells were incubated in a humidified incubator at 37° C. overnight. On the next day, the cells were treated with compounds (stock solution, 10 mM in DMSO) using the HP D300 Digital Dispenser in a concentration range of 3.3×10e-5 M (33 μM) to 5×10e-9 M (5 nM) in a single-dot curve with at least 16 dilutions and a DMSO concentration of 0.33%. Rim wells were excluded. The cells were incubated for 5 hours in a humidified incubator at 37° C. After this incubation, 30 μl of CellTiter-Glo® Luminescent Cell Viability reagent (Promega, G7573) was added to each well using the Multidrop Combi Reagent Dispenser, followed by 15 minutes incubation on a shaker at room temperature. Finally, luminescence was read at 0.1 ms, with a gain of 3000 using the PHERAstar FS microplate reader (BMG Labtech).

[4] = test system: SUDHL5; experiment: Induction of cytotoxicity (Assay 6), SUDHL5; details: read-out: Cytotox SUDHL5 [M] (median) IC50, CellTiter-Glo, 5 hours, SUDHL5
[5] = test system: SUDHL10; experiment: Induction of caspase-3/7 activity (Assay 4), SUDHL10; type: cell-based; details: caspase-3/7 induction, median
In short: as §1

[6] = test system: AMO-1; experiment: Antiproliferation assay (Assay 7), AMO-1; type: cell-based; details: CellTiter-Glo, 72 hours, several values per example
In short: as §2

[7] = read-out: Antiproli AMO-1 [M] IC50

SMILES | EC50 ([1]; Homo sapiens, SU-DHL-5, 3 h) | IC50 ([2]; Homo sapiens, SU-DHL-5, 72 h) | EC50 ([5]; Homo sapiens, SU-DHL10, 3 h) | EC50 ([1]; 3 hours) | IC50 ([2]; 72 hours) | EC50 ([5]; 3 hours) | IC50 ([3]; Homo sapiens, SU-DHL10, 5 h) | IC50 ([4]; Homo sapiens, SU-DHL-5, 5 h) | IC50 [3] | IC50 [4] | IC50 [6, 7] | IC50 ([6]; listed as 05, read-out: Antiproli AMO-1 [M] IC50)
CCNCC.CCc1c2c(nn1C)C(CCN1CCOCC1)N(C)S(=O)(=O)CCCn1c(C(=O)O)c(CCCOc3cccc4cc(F)ccc34)c3ccc(Cl)c-2c31 (single isomer, unassigned; enantiomer 2) [Example 76, 4-chloro-3-ethyl-7-{3-[(6-fluoronaphthalen-1-yl)oxy]propyl}-2,14-dimethyl-15-[2-(morpholin-4-yl)ethyl]-13,13-dioxo-10,11,12,13,14,15-hexahydro-2H-13lambda^6-pyrazolo[3′,4′:4,5][1,2,8]thiadiazacycloundecino[6,7,8-hi]indole-8-carboxylic acid-N-ethylethanamine Salt (Enantiomer 2)] |  |  |  | 6.5 nM | 5.7e-09 M | 5.5 nM |  |  | 8.2e-09 M | 6.7e-09 M |  | 
CCc1c2c(nn1C)C(CCC1CCOCC1)N(C)S(=O)(=O)CCCn1c(C(=O)O)c(CCCOc3cccc4cc(F)ccc34)c3ccc(Cl)c-2c31 (racemic) [Example 60, (rac)-4-chloro-3-ethyl-7-{3-[(6-fluoro-1-naphthyl)oxy]propyl}-2,14-dimethyl-15-[2-(tetrahydro-2H-pyran-4-yl)ethyl]-11,12,14,15-tetrahydro-2H,10H-pyrazolo[3′,4′:4,5][1,2,8]thiadiazacycloundecino[6,7,8-hi]indole-8-carboxylic acid 13,13-dioxide (Racemate 1)] |  |  |  | 18 nM | 1.8e-08 M | 32 nM |  |  | 3.9e-08 M | 2.8e-08 M | 4.4e-08 M | 
CCc1c2c(nn1C)CN(C1CC1)S(=O)(=O)CCCn1c(C(=O)O)c(CCCOc3cccc4cc(F)ccc34)c3ccc(Cl)c-2c31 (single isomer, unassigned; enantiomer 1) [Example 54, (−)-4-chloro-14-cyclopropyl-3-ethyl-7-{3-[(6-fluoronaphthalen-1-yl)oxy]propyl}-2-methyl-13,13-dioxo-10,11,12,13,14,15-hexahydro-2H-13lambda^6-pyrazolo[3′,4′:4,5][1,2,8]thiadiazacycloundecino[6,7,8-hi]indole-8-carboxylic acid N-ethylethanamine Salt (Enantiomer 1)] |  |  |  | 260 nM | 4.1e-07 M | 520 nM |  |  | 6.5e-07 M | 3.6e-07 M |  | 
CCc1c2c(nn1C)C(CCN1CCOCC1)N(C)S(=O)(=O)CCCn1c(C(=O)O)c(CCCOc3cccc4cc(F)ccc34)c3ccc(Cl)c-2c31 (racemic) [Example 73, (rac)-(4-chloro-3-ethyl-7-{3-[(6-fluoronaphthalen-1-yl)oxy]propyl}-2,14-dimethyl-15-[2-(morpholin-4-yl)ethyl]-13,13-dioxo-10,11,12,13,14,15-hexahydro-2H-13lambda^6-pyrazolo[3′,4′:4,5][1,2,8]thiadiazacycloundecino[6,7,8-hi]indole-8-carboxylic acid (Racemate 1)] |  |  |  | 23 nM | 1.5e-08 M | 230 nM |  |  |  |  | 2.6e-08 M and 2.5e-08 M | 
Cc1c2c(nn1C)C(CCN1CCOCC1)N(C)S(=O)(=O)CCCn1c(C(=O)O)c(CCCOc3cccc4cc(F)ccc34)c3ccc(Cl)c-2c31 (single isomer, unassigned; enantiomer 2) [Example 67, 4-chloro-7-{3-[(6-fluoronaphthalen-1-yl)oxy]propyl}-2,3,14-trimethyl-15-[2-(morpholin-4-yl)ethyl]-13,13-dioxo-10,11,12,13,14,15-hexahydro-2H-13lambda^6-pyrazolo[3′,4′:4,5][1,2,8]thiadiazacycloundecino[6,7,8-hi]indole-8-carboxylic acid (Enantiomer 2)] |  |  |  | 7.3 nM | 6.7e-09 M | 12 nM |  |  | 1.8e-08 M | 9.8e-09 M |  | 
Cc1c2c(nn1C)C(CCN1CCOCC1)N(C)S(=O)(=O)CCCn1c(C(=O)O)c(CCCOc3cccc4ccccc34)c3cccc-2c31 (single isomer, unassigned; enantiomer 2) [Example 46, 2,3,14-trimethyl-15-[2-(morpholin-4-yl)ethyl]-7-{3-[(naphthalen-1-yl)oxy]propyl}-13,13-dioxo-10,11,12,13,14,15-hexahydro-2H-13lambda^6-pyrazolo[3′,4′:4,5][1,2,8]thiadiazacycloundecino[6,7,8-hi]indole-8-carboxylic acid N-ethylethanamine Salt (Enantiomer 2)] |  |  |  | 390 nM | 3e-07 M | 380 nM |  |  | 6.1e-07 M | 5e-07 M | 5.3e-07 M and 5e-07 M | 

More lines, main results first:

EC50 ([1]; Homo sapiens, SU-DHL-5, 3 h) | IC50 ([2]; Homo sapiens, SU-DHL-5, 72 h) | EC50 ([5]; Homo sapiens, SU-DHL10, 3 h) | EC50 ([1]; 3 hours) | IC50 ([2]; 72 hours) | EC50 ([5]; 3 hours) | SMILES | IC50 ([3]; Homo sapiens, SU-DHL10, 5 h) | IC50 ([4]; Homo sapiens, SU-DHL-5, 5 h) | IC50 [3] | IC50 [4] | IC50 [6, 7] | IC50 ([6]; listed as 05, read-out: Antiproli AMO-1 [M] IC50)
200 nM | 9.6e-08 M | 160 nM |  |  |  | CCc1c2c(nn1C)CN(CC)S(=O)(=O)CCCn1c(C(=O)O)c(CCCOc3cccc4cc(F)ccc34)c3ccc(Cl)c-2c31 (racemic) [Example 56, (rac)-4-chloro-3,14-diethyl-7-{3-[(6-fluoro-1-naphthyl)oxy]propyl}-2-methyl-11,12,14,15-tetrahydro-2H,10H-pyrazolo[3′,4′:4,5][1,2,8]thiadiazacycloundecino[6,7,8-hi]indole-8-carboxylic acid 13,13-dioxide] | 2.5e-07 M | 2.8e-07 M |  |  |  | 
 |  |  | 130 nM | 5.1e-07 M | 590 nM | Cc1c2c(nn1C)CN(C)S(=O)(=O)CCCn1c(C(=O)O)c(CCCOc3cccc4ccccc34)c3ccc(Cl)c-2c31 (single isomer, unassigned; enantiomer 1) [Example 5, 4-Chloro-2,3,14-trimethyl-7-{3-[(naphthalen-1-yl)oxy]propyl}-13,13-dioxo-10,11,12,13,14,15-hexahydro-2H-13λ^6-pyrazolo[3′,4′:4,5][1,2,8]thiadiazacycloundecino[6,7,8-hi]indole-8-carboxylic acid-N-ethylethanamine salt (Enantiomer 1)] |  |  | 7.1e-07 M | 4.9e-07 M |  | 1.5e-06 M
 |  |  | 550 nM | 5.9e-07 M | 770 nM | CCc1c2c(nn1C)CN(C1CC1)S(=O)(=O)CCCn1c(C(=O)O)c(CCCOc3cccc4cc(F)ccc34)c3ccc(Cl)c-2c31 (racemic) [Example 53, (rac)-4-chloro-14-cyclopropyl-3-ethyl-7-{3-[(6-fluoro-1-naphthyl)oxy]propyl}-2-methyl-11,12,14,15-tetrahydro-2H,10H-pyrazolo[3′,4′:4,5][1,2,8]thiadiazacycloundecino[6,7,8-hi]indole-8-carboxylic acid 13,13-dioxide] |  |  | 9e-07 M | 8.1e-07 M |  | 
 |  |  | 16000 nM | 1.1e-05 M | 14000 nM | Cc1c2c(nn1C)CN(C)S(=O)(=O)CCCn1c(C(=O)O)c(CCCOc3cccc4ccccc34)c3ccc(Cl)c-2c31 (single isomer, unassigned; enantiomer 2) [Example 6, 4-Chloro-2,3,14-trimethyl-7-{3-[(naphthalen-1-yl)oxy]propyl}-13,13-dioxo-10,11,12,13,14,15-hexahydro-2H-13λ^6-pyrazolo[3′,4′:4,5][1,2,8]thiadiazacycloundecino[6,7,8-hi]indole-8-carboxylic acid-N-ethylethanamine salt (Enantiomer 2)] |  |  | 1.7e-05 M | 1.2e-05 M |  | 
